Results as given in patent publication US6063814A, “Phorbol esters as anti-neoplastic and white blood cell elevating agents” (priority 1997, dated 2000).
Where “and” joins values, the source holds several entries; their conditions need not be identical. Equal entries are not always repeated. Entries after “also recorded” stand apart in the source; their conditions may differ.

Test system: White Blood Cell (WBC)
Experiment: TPA induced white blood cell changes in patients with solid tumors undergoing chemotherapy
Format: in vivo, humans
Description: TPA solution in a sterile syringe was injected into 200 ml of saline and mixed well for i.v. infusion.
Patients undergoing chemotherapy for the treatment of solid tumors.
Subject No. (11), person. Diagnosis: malignant lymphoma. The patient had received adramycin, vincristine, and hormonal treatment. The blood cell counts were decreased to: Hb: 78 g/L, WBC: 0.7×10^9 /L, platelet: 245×10^9 /L. 0.25 mg TPA was administered to the patient 4 times. The blood cell counts improved to: Hb: 76 g/L, WBC: 6.8×10^9 /L, platelet: 331×10^9 /L. Chemotherapy was then continued for 5 more days, and followed by one dose of 0.5 mg TPA. The WBC count was maintained at 3.0×10^9 /L. The patient is still receiving treatment.
Subject No. (12), person. Diagnosis: brain tumor. Blood profile after chemotherapy was: Hb: 119 g/L, WBC: 3.0×10^9 /L, platelet: 399×10^9 /L. 0.25 mg TPA was given to the patient once. On the day after the TPA treatment, the blood profile was Hb: 123 g/L, WBC: 4.5×10^9 /L, platelet: 436×10^9 /L. The patient received further chemotherapy.
Subject No. (13), person. Diagnosis: lung cancer. After chemotherapy, their blood cell counts were decreased to: Hb: 76 g/L, WBC: 0.9×10^9 /L, platelet: 100×10^9 /L. 0.25 mg TPA was given to the patient twice. On the day after the TPA treatment, Hb: 74 g/L, WBC: 2.5×10^9 /L, platelet: 110×10^9 /L. The patient is still receiving treatment.
Subject No. (14), person. Diagnosis: breast cancer. The WBC after chemotherapy was 3.8×10^9 /L. 0.25 mg of TPA was given to the patient once. The WBC on the day after the TPA treatment was 8.0×10^9 /L.
Subject No. (15), person. Diagnosis: Esophageal Cancer. Surgery was performed, followed by chemotherapy using cisplatin, 5-fluorouracil. Blood profile (before TPA): WBC: 2.4×10^9 /L; neutrophil: 83%, lymphocyte: 17%; platelet: 150×10^9 /L; RBC: 3.43×10^12 /L; Hb: 107 g/L. TPA dosage: 0.25 mg. […] The cardiac, hepatic, renal and pulmonary functions were normal.
Subject No. (16), person. Diagnosis: Esophageal Cancer. Surgery was performed, followed by chemotherapy using VP16, MTX, MMC and cisplatin. TPA dose: 0.25 mg. Blood profile (before TPA): WBC: 2.4×10^9 /L; neutrophil: 67%; lymphocyte: 23%; platelet: 101×10^9 /L; RBC: 3.45×10^12 /L; Hb: 114 g/L. Blood profile (one day after TPA): WBC: 5.2×10^9 /L; neutrophil: 87%; lymphocyte: 13%; platelet 60×10^9 /L; RBC: 3.76×10^12 /L; Hb: 122 g/L. Blood profile (2 days after TPA administration).
Subject No. (17), person. Diagnosis: breast cancer. Surgery was performed, followed by chemotherapy using CTX, MTX, and 5-FU. TPA dose: 0.25 mg×2 (Second dose was 4 days after 1st dose). […] The cardiac, hepatic, renal and pulmonary functions were normal.
Subject No. (18), person. Diagnosis: Colon cancer. Surgery was performed, followed by chemotherapy using Cisplatin, VP16, and 5-FU. TPA dose: 0.25 mg×2 (2nd TPA dose was administered 24 hrs after 1st TPA dose). […] Cardiac hepatic, renal and pulmonary functions were normal.
Subject No. (19), person. Diagnosis: lung cancer metastasized to adrenal gland. Surgery was performed, followed by chemotherapy using MMC, VCR, and CTX. TPA dosage: 0.25 mg×2 (2nd TPA dose was administered 24 hrs after 1st TPA dose). […] Cardiac, hepatic renal and pulmonary functions were normal.
Subject No. (20), person. Diagnosis: esophageal cancer metastasized to liver, lung and brain. The patient received chemotherapy using Taxol, cisplatin, 5-FU and Semustial. Total TPA dosage: 2mg. Blood profile (before TPA): WBC: 0.7×10^9 /L; neutrophil: 29%; lymphocyte: 71%; platelet: N/A; RBC: 2.82×10^12 /L; Hb: 87 g/L. TPA treatment schedule. On the first and third day, 0.25 mg was given and on the 5th, 7th and 9th day 0.5 mg of TPA was given. […] Cardiac, hepatic, renal and pulmonary functions were normal.
Subject No. (21), person. Diagnosis: lymphoma metastasized to bone marrow. […]

[1] = 2 days after second TPA dose (0.25 mg×2)
[2] = 2 days after single TPA 0.25 mg
[3] = 4 days after single TPA 0.25 mg
[4] = 7 days after single TPA 0.25 mg
[5] = one day after second TPA dose (0.25 mg×2)
[6] = one day after single TPA 0.25 mg
[7] = solid tumor patients after TPA 0.25 mg doses
[8] = subject 11, malignant lymphoma, after 0.25 mg TPA 4 times
[9] = subject 17, 3 days after first TPA dose 0.25 mg
[10] = subject 17, 4 days after second TPA dose 0.25 mg
[11] = subject 20, 11th day, TPA total 2 mg over 9 days
[12] = subject 20, day 2, TPA total 2 mg over 9 days
[13] = subject 20, day 4, TPA total 2 mg over 9 days
[14] = subject 20, day 6, TPA total 2 mg over 9 days
[15] = subject 20, day 8, TPA total 2 mg over 9 days
[16] = subject 20, day 13, TPA total 2 mg over 9 days
[17] = subject 21, day 2, TPA total 2.5 mg, days 1-8
[18] = subject 21, day 4, TPA total 2.5 mg, days 1-8
[19] = subject 21, day 7, TPA total 2.5 mg, days 1-8
[20] = subject 21, day 9, TPA total 2.5 mg, days 1-8

CCCCCCCCCCCCCC(=O)O[C@@H]1[C@@H](C)[C@@]2(O)[C@@H](C=C(CO)C[C@]3(O)C(=O)C(C)=C[C@@H]23)[C@@H]2C(C)(C)[C@]12OC(C)=O [TPA, Phorbol 12-Myristate-13-Acetate]
Hb [1]: 101 g/L
WBC [1]: 3.8e+09 L⁻¹ and 5e+09 L⁻¹
lymphocyte [1]: 16% and 20%
neutrophil [1]: 84% and 80%
platelet [1]: 8.4e+10 L⁻¹
Hb [2]: 109 g/L and 116 g/L
RBC [2]: 2.99e+12 L⁻¹
WBC [2]: 4.5e+09 L⁻¹ and 5.6e+09 L⁻¹
lymphocyte [2]: 20% and 19%
neutrophil [2]: 80% and 81%
platelet [2]: 6.4e+10 L⁻¹
Hb [3]: 112 g/L and 129 g/L
RBC [3]: 3.36e+12 L⁻¹
WBC [3]: 4.4e+09 L⁻¹ and 3.9e+09 L⁻¹
platelet [3]: 1.05e+11 L⁻¹
Hb [4]: 118 g/L and 138 g/L
neutrophil [4]: 82% and 48%
recovery of infection fighting cells (after and during chemotherapy): help speed the rapid recovery of the infection fighting cells
Hb [5]: 74 g/L and 112 g/L and 93 g/L
RBC [5]: 4.1 ×10^12
neutrophil [5]: 60% and 82%
platelet [5]: 1.1e+11 L⁻¹ and 1.98e+11 L⁻¹
Hb [6]: 123 g/L and 109 g/L and 122 g/L and 116 g/L and 139 g/L and 126 g/L and 120 g/L
RBC [6]: 3.33e+12 L⁻¹ and 3.76e+12 L⁻¹
neutrophil [6]: 94% and 87% and 79% and 53% and 60% and 90% and 83%
time of elevation of white blood cell count (patients receiving chemotherapy, often): within one day
duration of fever [7]: 4 h
fever, temperature after TPA [7]: 38 °C and 39.2 °C and 37.8 °C and 39 °C
cardiac, hepatic, renal and pulmonary functions (solid tumor patients after TPA, one subject per block): normal; also recorded: same as before TPA treatment; also recorded: functioning normally
Symptoms after TPA (solid tumor patients undergoing chemotherapy, one subject per block): Chill, fever, local irritation and slight headache; also recorded: chills, fever, local irritation; also recorded: Chills at 5th day which lasted about one hour; also recorded: No chills and fever, only local irritation; also recorded: No chills. Low fever; also recorded: Stomach ache and diarrhea (which disappeared soon after)
WBC count maintained (subject 11, after 5 more days chemotherapy and one dose 0.5 mg TPA): 3e+09 L⁻¹
Hb [8]: 76 g/L
WBC [8]: 6.8e+09 L⁻¹
platelet [8]: 3.31e+11 L⁻¹
Hb [9]: 107 g/L
RBC [9]: 3.36e+12 L⁻¹
WBC [9]: 2.9e+09 L⁻¹
lymphocyte [9]: 17%
neutrophil [9]: 83%
platelet [9]: 1.22e+11 L⁻¹
Hb [10]: 112 g/L
RBC [10]: 3.49e+12 L⁻¹
WBC [10]: 4.4e+09 L⁻¹
lymphocyte [10]: 14%
neutrophil [10]: 86%
platelet [10]: 1.93e+11 L⁻¹
duration of chills (subject 17, TPA 0.25 mg×2): 2 h
Hb [11]: 61 g/L
RBC [11]: 2.91e+12 L⁻¹
WBC [11]: 2.7e+09 L⁻¹
lymphocyte [11]: 15%
neutrophil [11]: 85%
platelet [11]: 3.76e+10 L⁻¹
Hb [12]: 72 g/L
RBC [12]: 2.17e+12 L⁻¹
WBC [12]: 9e+08 L⁻¹
lymphocyte [12]: 34%
neutrophil [12]: 66%
platelet [12]: 8.2e+10 L⁻¹
Hb [13]: 58 g/L
RBC [13]: 2.09e+12 L⁻¹
WBC [13]: 1.1e+09 L⁻¹
lymphocyte [13]: 9%
neutrophil [13]: 91%
platelet [13]: 3.9e+10 L⁻¹
Hb [14]: 70 g/L
RBC [14]: 1.9 ×10^12
WBC [14]: 1.9e+09 L⁻¹
lymphocyte [14]: 5%
neutrophil [14]: 95%
platelet [14]: 4.3e+10 L⁻¹
Hb [15]: 61 g/L
RBC [15]: 1.71e+12 L⁻¹
WBC [15]: 2.3e+09 L⁻¹
lymphocyte [15]: 9%
neutrophil [15]: 91%
platelet [15]: 9e+10 L⁻¹
Hb [16]: 57 g/L
RBC [16]: 1.73e+12 L⁻¹
WBC [16]: 1.9e+09 L⁻¹
lymphocyte [16]: 10%
neutrophil [16]: 90%
platelet [16]: 3.2e+10 L⁻¹
Hb [17]: 117 g/L
RBC [17]: 4.15e+12 L⁻¹
WBC [17]: 6e+08 L⁻¹
platelet [17]: 6.9e+10 L⁻¹
Hb [18]: 109 g/L
RBC [18]: 3.95e+12 L⁻¹
WBC [18]: 6e+08 L⁻¹
lymphocyte [18]: 72%
neutrophil [18]: 28%
platelet [18]: 6.8e+10 L⁻¹
Hb [19]: 110 g/L
RBC [19]: 4.22e+12 L⁻¹
WBC [19]: 8e+08 L⁻¹
lymphocyte [19]: 12%
neutrophil [19]: 88%
platelet [19]: 6e+10 L⁻¹
Hb [20]: 112 g/L
RBC [20]: 4.02e+12 L⁻¹
WBC [20]: 1.5e+09 L⁻¹
lymphocyte [20]: 2%
neutrophil [20]: 80%
platelet [20]: 6.9e+10 L⁻¹
resolution of injection site symptoms (subject 25, TPA 0.25 mg): disappeared the second day after they appeared
injection site reaction (subject 25, TPA 0.25 mg, probably caused by infusion needle): red, swollen in appearance and painful
duration of raised temperature (subject 26, TPA 0.25 mg): 3 h
Hb (three days after TPA 0.25 mg): 123 g/L
WBC (three days after TPA 0.25 mg): 2.9e+09 L⁻¹
lymphocyte (three days after TPA 0.25 mg): 27%
neutrophil (three days after TPA 0.25 mg): 73%
